Tests used:
rumen bacteria [1] = assay: In vitro bacterial gas inhibition; format: cell-based; conditions: at the concentration known to kill protozoa
Procedure: Compounds of Table 1 were also tested for toxicity bacteria. This involved removing protozoa from rumen liquor by centrifugation at 2,000 g for 5 minutes and collecting the bacterial rich supernatant. Nitrogen and energy substrate was added to the bacterial preparation which was then dispensed in triplicate 10 ml volumes over the same range of compound concentrations (50, 150, 250 and 500 ppm.) referred to in Example 2. Control tubes were placed after every second compound to enable the inhibition of gas resulting from the compound to be assessed. […] It can be seen that these compounds are selective in their mode of action, in that they are more toxic to protozoa than bacteria.

rumen ciliate protozoa [2] = assay: In vitro activity of defaunation compounds against rumen ciliate protozoa; format: cell-based; conditions: 39° C., anaerobic, 3 hours, tested at 50, 150, 250 and 500 ppm
Procedure: Compounds of Table 1 were tested for their toxicity against rumen ciliate protozoa by firstly isolating protozoa from rumen liquor collected from faunated animals. The rumen liquor was then centrifuged at 500 g for five minutes and the supernatant discarded. The protozoal-rich sediment was then reconstituted in McDougal's artificial saliva. Residual bacteria were suppressed by using a combination of two antibiotics at low concentration. Nitrogen and energy substrate was optimized for the protozoal preparation. At all times the protozoal preparation was maintained at 39° C. and kept anaerobic.
Sixty milligrams of each the compounds of Table 1 were dissolved in 1.2 ml of dimethyl sulphoxide and dispersed in triplicate to achieve a final concentration of 50, 150, 250 and 500 ppm. Ten milliliters of protozoal preparation was then added to each tube. After every second compound, control tubes were included which contained everything except for compound. The tubes, to which a 5 ml glass syringe was attached, were then incubated for 3 hours in a water bath at 39° C. The production of gas causes the syringe plunger to be displaced.
At the end of the incubation period, the volume of gas produced was recorded and the viability of the protozoa assessed visually using a microscope. The toxicity of the compounds to protozoa was assessed from both the reduction in gas produced relative to the control and by direct observation of the protozoa for movement of cilia.

[3] = Effect of defaunation compounds on feed intake of sheep; format: in vivo; conditions: after dosing vs pre-dosing intake
Procedure: Sheep were allowed a minimum of three weeks to adapt to their ration of 900 g of oaten chaff and 100 g of Lucerne chaff. The pre-dosing level of intake for each animal was established from the mean of five days intake immediately prior to dosing. Any effects of administering the compound on feed intake was then determined by measuring the level of feed intake after dosing.
The criteria of classifying the effect on food intake are shown below.
Poor--greater than 50% reduction in feed intake during the first week after dosing.
Fair--greater than 50% reduction in feed intake on the day following dosing but less then 50% reduction one week after dosing.
OK--transient drop in feed intake which is less than 50% on the day after dosing.
Good--No reduction in feed intake following dosing.

rumen ciliate protozoa [4] = assay: Protozoal reduction in sheep; format: in vivo; set-up: concentration or dose not given beside the values; conditions: one week after dosing, relative to predosing numbers
Procedure: Defaunation compositions were prepared according to the method of Example 1.
Prior to dosing of the compound, a sample of rumen liquor (200 ml) was withdrawn to establish basal numbers of protozoa.
The sample was collected using a stomach tube, inserted into the rumen via a rumen cannula (fistulated animals) or per esophagus (intact animals). After straining the sample was well mixed using a magnetic stirrer and a 0.5 ml sample was withdrawn and added to 49.5 ml of a crystal violet stain. Protozoa were counted using a microscope and a Hawksley counting chamber.
One week after administering the compound, another rumen liquor sample was collected (as described above) and examined for the presence of protozoa. Where rumen ciliate protozoa were undetectable, a reduction or inhibition value of 100% was recorded. In general, most compounds expressed a strong inhibitory effect on protozoal populations.

rumen bacteria [5] = assay: Bacterial viability in sheep after administering defaunation compounds; format: in vivo; conditions: gas production one week after dosing vs pre-dosing
Procedure: In order to establish what effect the compounds had on the viability of rumen bacteria, a sample of rumen liquor was collected prior to dosing of the compound. The sample was withdrawn under vacuum using a pre-warmed tube inserted into the rumen through a rumen cannula. The sample was collected in a pre-warmed (39° C.) flask, gassed with carbon dioxide and covered. Two-pre-warmed 30 ml centrifuge tubes were then filled with well mixed rumen liquor and centrifuged at 2000 rpm for 5 minutes. Half the volume of each tube was then poured into another pre-warmed tube without disturbing the sediment. Three lots of 10 ml of this rumen liquor were then pipetted into 15 ml tubes which contained 10 μL of urea solution (40% w/v and 300 μL of glucose solution (50% w/v). The urea and glucose acted as substrate for the bacteria. The tubes were then gassed with carbon dioxide, stoppered and placed in a water bath at 39° C. After 10 minutes a 5 ml glass syringe was secured into the stoppers (through which a hypodermic needle had been inserted) and the gas collected for five hours and recorded.
This bacterial viability measure was then repeated one week after dosing with each of the compounds referred to in Table 1. Defaunation compositions were prepared according to the method of Example 1. The amount of gas produced was then compared with the pre-dosing level. The criterion for classifying post-dosing bacterial viability is shown below:
Poor--reduction in post-dosing gas production relative to pre-dosing levels.
OK--post-dosing gas production the same as pre-dosing levels.
Good--increase in post-dosing gas production relative to pre-dosing levels.

mice = assay: Mouse safety assessment; format: in vivo; conditions: oral gavage, 830, 415 and 217 mg/kg, observed for 2 days
Procedure: Compounds of Table 1 chosen for testing in sheep were first tested in mice for signs of toxicity. Because sheep are approximately 5 times more sensitive than mice to compounds dosed orally, the dose rates applied to mice were 5 times greater than the target dose rate of 500 ppm. in rumen liquor (83 mg/kg live weight) used for sheep. Each compound was screened at three different dose levels, high (830 mg/kg), medium (415 mg/kg) and low (217 mg/kg).
252 mg of compound was used for dilution into a high medium and low dose rate. 252 mg of compound was mixed with 3 ml of G1284 solution (4% w/v ethoxylated castor oil and 0.05% w/v simethicone), to form the high dose composition. The medium dose composition was formed by diluting 1.5 ml of the high dose with 1.5 ml of G1284 solution. The low dose composition was formed by diluting 1.5 ml of the medium dose with 1.5 ml of G1284 solution. Before the high dose could be diluted it was first manually ball milled in an effort to produce a fine suspension of the compound.
All mice were weighed before dosing to calculate the appropriate dose rate. The calculation for dose rate was: [formula]
Each mouse was dosed using the Gavage method. With this method the mouse is dosed orally by way of an angled hypodermic needle (18 g) with a smooth spherical end. It is gently placed down the esophagus. All care must be taken not to force the needle and injure the esophagus or dose into the lungs.
Observations were made at 10, 30, 60 and 120 minutes after dosing, then every 1 or 2 hours for the first 6 hours.
Mice were usually observed for 2 days.
Typically, few compounds fell within the poor classification. The majority of compounds tested were either in the fair or good classification.

SMILES | Bact. Gas Inhibition at the conc. required to kill protozoa (rumen bacteria [1]) | Conc Required to Kill all Protozoa (rumen ciliate protozoa [2]) [ppm] | Feed Intake [3] | Protozoal Reduction (rumen ciliate protozoa [4]) [%] | Bacterial Viability (rumen bacteria [5]) | Mouse Safety Assessment (mice)
Clc1nc(Cl)nc(Nc2ccccc2)n1 [Compound 1] | 43 | 250 | – | – | – | –
Clc1ccc(Nc2nc(Cl)nc(Cl)n2)cc1 [Compound 2] | 38 | 150 | Fair | 100 | Good | Poor (death at 840 mg/kg)
Clc1nc(Cl)nc(Nc2ccc(Br)cc2)n1 [Compound 3] | 45 | 250 | Good | 100 | Good | –
Oc1ccc(Nc2nc(Cl)nc(Cl)n2)cc1 [Compound 4] | 43 | 250 | Poor (greater than 50% reduction between day 2 to day 8) | 100 | Poor | –
COc1ccc(Nc2nc(Cl)nc(Cl)n2)cc1 [Compound 5] | 33 | 250 | Fair | 100 | Poor | Good
Cc1ccc(Nc2nc(Cl)nc(Cl)n2)cc1 [Compound 6] | 40 | 150 | Okay (transient drop, less than 50% at day 2) | 100 | Okay | Poor (death at 840 mg/kg)
Clc1nc(Cl)nc(Nc2ccc(Cl)c(Cl)c2)n1 [Compound 7] | 30 | 250 | Poor (greater than 50% reduction between day 2 to day 8) | 100 | Poor | Fair (>2 mice sick)
Cc1ccccc1Nc1nc(Cl)nc(Cl)n1 [Compound 8] | 43 | 250 | Okay (transient drop, less than 50% at day 2) | 96 | Okay | Good
Cc1cc(C)c(Nc2nc(Cl)nc(Cl)n2)c(C)c1 [Compound 9] | 41 | 250 | Good | 88 | Good | Good
Cc1ccc(Nc2nc(Cl)nc(Cl)n2)cc1C [Compound 10] | 55 | 250 | Good | 100 | Good | Fair (>2 mice sick)
Cc1ccc(N(C)c2nc(Cl)nc(Cl)n2)c(C)c1 [Compound 12] | 35 | 250 | – | – | – | –
COc1ccc(Nc2nc(Cl)nc(Cl)n2)c(C)c1 [Compound 13] | 48 | 250 | – | – | – | –
CN(c1ccccc1)c1nc(Cl)nc(Cl)n1 [Compound 14] | 38 | 250 | – | – | – | –
O=[N+]([O-])c1cccc(Nc2nc(Cl)nc(Cl)n2)c1 [Compound 16] | 47 | 250 | Good | 72 | Good | –
Clc1nc(Cl)nc(Nc2ccc(-c3ccccc3)cc2)n1 [Compound 25] | 53 | 150 | – | – | – | –
Cc1ccc(Nc2nc(Cl)nc(Cl)n2)cc1[N+](=O)[O-] [Compound 26] | 47 | 250 | – | – | – | –
COc1ccc(Nc2nc(Cl)nc(Cl)n2)c([N+](=O)[O-])c1 [Compound 31] | 39 | 250 | – | – | – | –
Cc1ccc(N(C)c2nc(Cl)nc(Cl)n2)cc1 [Compound 33] | 33 | 250 | – | – | – | –
Cc1cc(O)c(C(C)(C)C)cc1Nc1nc(Cl)nc(Cl)n1 [Compound 34] | 81 | 250 | – | – | – | –

From US5561131A, “Defaunation method” (Mallinckrodt Veterinary, Inc., priority 1991, dated 1996)
